Experiments:
Type in all cases: physicochemical
[1] = Solubility of N-tert-butyloxycarbonylpentaglycine esters (CH3)3COCO(NHCH2CO)5OR in anisole, CH2Cl2 and H2O; conditions: for Solubility in g/100 cm^3 CH2 Cl2: solvent CH2Cl2; for Solubility in g/100 cm^3 H2 O: solvent H2O; for Solubility in g/100 cm^3 anisole: solvent anisole
[2] = Partition coefficient of N-tert-butyloxycarbonylpentaglycine esters between CH2Cl2 and H2O
[3] = Measurement of the solubilities of the molecules of formula (L)-seryl-A--L in water; conditions: measured in the filtrate after grinding in water for 15 minutes
Procedure: Ammonia gas was passed into this solution at room temperature. The ammonium chloride precipitate obtained was rapidly filtered off. […] The product obtained after concentration was immediately ground in water for 15 minutes at room temperature and then filtered off.
The solubility of the product of formula (L)-seryl-A--L was measured in the filtrate.

With CC(C)(C)OC(=O)NCC(=O)NCC(=O)NCC(=O)NCC(=O)NCC(=O)OCc1ccccc1 [benzyl] the “Solubility in g/100 cm^3 CH2 Cl2” value [1] was 0.070 g/100 cm^3, the “Solubility in g/100 cm^3 H2 O” value [1] was 0.017 g/100 cm^3 and the “Solubility in g/100 cm^3 anisole” value [1] was “insoluble”. The “Partition coefficient between CH2 Cl2 and H2 O” value [2] was 4.1.

In the case of CC(C)(C)OC(=O)NCC(=O)NCC(=O)NCC(=O)NCC(=O)NCC(=O)OCc1cccc(C(=O)OCc2cccc(Oc3ccccc3)c2)c1 [Example R2], the “Solubility in g/100 cm^3 CH2 Cl2” value [1] is reported as > 10 g/100 cm^3, the “Solubility in g/100 cm^3 H2 O” value [1] is reported as 0.0008 g/100 cm^3 and the “Solubility in g/100 cm^3 anisole” value [1] is reported as 5 g/100 cm^3. The “Partition coefficient between CH2 Cl2 and H2 O” value [2] was > 2,000.

For N[C@@H](CO)C(=O)OCc1ccccc1 [L-Serine benzyl ester], the “solubility in water at 25° C.” value [3] was > 100 mg/mL.

In the case of CC(C)(C)OC(=O)NCC(=O)NCC(=O)NCC(=O)NCC(=O)NCC(=O)OCc1cccc(C(=O)OCc2ccc(-c3ccccc3)cc2)c1 [Example R1], the “Solubility in g/100 cm^3 CH2 Cl2” value [1] is reported as > 10 g/100 cm^3, the “Solubility in g/100 cm^3 H2 O” value [1] is reported as 0.0016 g/100 cm^3 and the “Solubility in g/100 cm^3 anisole” value [1] is reported as 5 g/100 cm^3. For the same compound, the “Partition coefficient between CH2 Cl2 and H2 O” value [2] was > 1,000.

For COC(=O)CNC(=O)CNC(=O)CNC(=O)CNC(=O)CNC(=O)OC(C)(C)C [CH3], the “Solubility in g/100 cm^3 CH2 Cl2” value [1] was 0.33 g/100 cm^3, the “Solubility in g/100 cm^3 H2 O” value [1] was 0.50 g/100 cm^3 and the “Solubility in g/100 cm^3 anisole” value [1] was “insoluble”. The “Partition coefficient between CH2 Cl2 and H2 O” value [2] was 0.66.
